Columns and labels:
Type in all cases: in vivo
[1] = system: Plasmopara viticola; experiment: Test D: grape downy mildew control on grape seedlings
[2] = system: Erysiphe graminis f. sp. tritici; experiment: Test G: wheat powdery mildew control on wheat seedlings
[3] = system: Botrytis cinerea; experiment: Test E: tomato Botrytis control on tomato seedlings
[4] = system: Phakopsora pachyrhizi; experiment: Test A: Asian soybean rust control on soybean seedlings
[5] = system: Puccinia recondita f. sp. tritici; experiment: Test B: wheat leaf rust control on wheat seedlings
[6] = system: Phytophthora infestans; experiment: whole plant or invertebrate; settings: tomato seedlings
[7] = system: Zymoseptoria tritici; experiment: Test C: wheat leaf blotch control on wheat seedlings
[8] = 150 ppm, 100 = 100% disease control, 0 = no control
[9] = 150 ppm, wheat seedlings, 100 = 100% disease control, 0 = no control
[10] = rate 250 ppm, relative to the controls
[11] = 250 ppm, 100 = 100% disease control, 0 = no control
[12] = 250 ppm, soybean seedlings, 100 = 100% disease control, 0 = no control
[13] = 250 ppm, wheat seedlings, 100 = 100% disease control, 0 = no control

Compound	Test D disease control rating [1, 11]	Test G disease control rating [2, 11]	Test E disease control rating [3, 11]	Test A disease control rating [4, 12]	Test B disease control rating [5, 13]	Test F disease control rating [6, 11]	Test C disease control rating [7, 13]	other results
COc1ccnc(C(=O)NC(C)C(=O)OC(C)c2ccccc2C(F)(F)F)c1O (mixture of isomers) [Compound 17]								Test D disease control rating [1, 8]: 23%; Test G disease control rating [2, 8]: 0%; Test E disease control rating [3, 8]: 0%; Test A disease control rating ([4]; 150 ppm, soybean seedlings, 100 = 100% disease control, 0 = no control): 66%; Test B disease control rating [5, 9]: 41%; Test F disease control rating [6, 8]: 0%; Test C disease control rating [7, 9]: 92%
COc1ccnc(C(=O)N(C)C(C)C(=O)OC(C)c2ccc(C3CCCCC3)cc2)c1O (mixture of isomers) [Compound 193]								Test D disease control rating (100 = 100% disease control, 0 = no disease control) [1, 10]: 74%; Test G disease control rating (100 = 100% disease control, 0 = no disease control) [2, 10]: 0%; Test E disease control rating (100 = 100% disease control, 0 = no disease control) [3, 10]: 0%; Test A disease control rating (100 = 100% disease control, 0 = no disease control) [4, 10]: 87%; Test B disease control rating (100 = 100% disease control, 0 = no disease control) [5, 10]: 74%; Test F disease control rating (100 = 100% disease control, 0 = no disease control) [6, 10]: 0%; Test C disease control rating (100 = 100% disease control, 0 = no disease control) [7, 10]: 3%
COc1ccnc(C(=O)NC(C)C(=O)OC(C)c2ccc(F)cc2)c1OC(C)=O (mixture of isomers) [Compound 15]	39%	0%	0%	75%	19%	0%	69%	
COc1ccnc(C(=O)NC(C)C(=O)N(C)C(C)c2ccc(C3CCCCC3)cc2)c1OC(C)=O (mixture of isomers) [Compound 99]	39%	0%	0%	98%	68%	0%	88%	
COc1ccnc(C(=O)NC(C)C(=O)OC(C)c2ccc(F)cc2Oc2ccccc2)c1OC(C)=O (mixture of isomers) [Compound 85]	62%	0%	0%	63%	79%	0%	67%	
COc1ccnc(C(=O)NC(C)C(=O)OC(C(C)C)C2CCCCC2)c1O (mixture of isomers) [Compound 63]	81%	0%	16%	100%	99%	0%	79%	
CC(NC(=O)c1cccc(NC=O)c1O)C(=O)OC(C)c1ccc(C2CCCCC2)cc1 (mixture of isomers) [Compound 97]	100%	0%	0%	98%	92%	99%	99%	
COc1cccc(C(=O)NC(C)C(=O)OC(C)c2ccccc2Cc2ccccc2)c1O (stereo not drawn) [Compound 5]	73%	0%	0%	0%	0%	39%	0%	
COc1ccnc(C(=O)N[C@@H](C)C(=O)OC(C)c2cccc3ccccc23)c1OC(C)=O (single isomer, unassigned) [Compound 116]	55%	0%	0%	100%	100%	0%	95%	
COc1ccnc(C(=O)N[C@@H](C)C(=O)OC(C2CCCCC2)C2CCCCC2)c1O [Compound 45]	43%	0%	0%	100%	0%	9%	39%	
COc1ccnc(C(=O)NC(C)C(=O)OC(C)C2CCC(C)(C)CC2)c1OC(C)=O (mixture of isomers) [Compound 165]	10%	0%	0%	100%	100%	0%	97%	
COc1ccnc(C(=O)N[C@@H](C)C(=O)OC(C)c2ccc(C3CCCCC3)cc2)c1OCOC(C)=O (single isomer, unassigned) [Compound 147]	38%	94%	0%	100%	99%	71%	95%	
COc1ccnc(C(=O)N[C@@H](C)C(=O)OC(C)c2ccc(F)cc2Cc2ccccc2)c1OC(C)=O (single isomer, unassigned) [Compound 38]	44%	0%	0%	0%	41%	0%	53%	
COc1ccnc(C(=O)N[C@@H](C)C(=O)OC(C)c2ccc(C(C)(C)C)cc2)c1O (stereo partly drawn) [Compound 123]	57%	0%	0%	100%	100%	24%	84%	
COc1ccnc(C(=O)NC(C)C(=O)OC(C)c2ccc(C#N)cc2)c1O (mixture of isomers) [Compound 34]	58%	0%	0%	0%	0%	0%	13%	
CCC(OC(=O)[C@H](C)NC(=O)c1nccc(OC)c1OC(C)=O)c1ccc(C2CCCCC2)cc1 (single isomer, unassigned) [Compound 130]	9%	0%	0%	96%	74%	0%	12%	
COc1ccnc(C(=O)N[C@@H](C)C(=O)OC(C)c2ccccc2Oc2ccc(F)cc2)c1OC(C)=O (single isomer, unassigned) [Compound 57]	16%	0%	0%	99%	98%	0%	88%	
COc1ccnc(C(=O)NC(C)C(=O)OC(C)c2ccc(C(F)(F)F)cc2)c1O (mixture of isomers) [Compound 36]	72%	0%	0%	100%	99%	0%	81%	
COc1ccnc(C(=O)NC(C)C(=O)OC(C)c2ccccc2[N+](=O)[O-])c1O (mixture of isomers) [Compound 16]	59%	0%	0%	13%	0%	0%	76%	
COc1ccnc(C(=O)N[C@@H](C)C(=O)OC(C(C)C)C2CCCCC2)c1OC(C)=O (mixture of isomers) [Compound 62, N-[[3-(acetyloxy)-4-methoxy-2-pyridinyl]carbonyl]-L-alanine 1-cyclohexyl-2-methylpropyl ester]								pest or weed control at 50 ppm ([1]; Plasmopara viticola, 50 ppm, 100 = 100% disease control, 0 = no control, read-out: Test D disease control rating): 74%; pest or weed control at 50 ppm ([2]; Blumeria graminis, 50 ppm, 100 = 100% disease control, 0 = no control, read-out: Test G disease control rating): 0%; pest or weed control at 50 ppm ([3]; Botrytis cinerea, 50 ppm, 100 = 100% disease control, 0 = no control, read-out: Test E disease control rating): 0%; pest or weed control at 50 ppm ([4]; Phakopsora pachyrhizi, 50 ppm, soybean seedlings, 100 = 100% disease control, 0 = no control, read-out: Test A disease control rating): 100%; pest or weed control at 50 ppm ([5]; Puccinia recondita, 50 ppm, wheat seedlings, 100 = 100% disease control, 0 = no control, read-out: Test B disease control rating): 93%; pest or weed control at 50 ppm ([6]; Phytophthora infestans, in Solanum lycopersicum, read-out: Test F disease control rating, 50 ppm, 100 = 100% disease control, 0 = no control): 0%; pest or weed control at 50 ppm ([7]; Zymoseptoria tritici, 50 ppm, wheat seedlings, 100 = 100% disease control, 0 = no control, read-out: Test C disease control rating): 14%
COc1ccnc(C(=O)NC(C)C(=O)OC(C)c2ccc(C3CCCCC3)cc2)c1OS(C)(=O)=O (mixture of isomers) [Compound 156]	7%	0%	0%	89%	68%	17%	13%	
